Reference: US5219879A, “Heterocyclic steroid compounds” (Du Pont Merck Pharmaceutical Company, priority 1991, dated 1993)
pIC50: −log10 of the molar value.

System: 3-Hydroxy-3-Methylglutaryl Coenzyme A Reductase (HMGR)
Experiment: 3-Hydroxy-3-Methylglutaryl Coenzyme A Reductase (HMGR) Suppression Assay
Format: cell-based, Chinese Hamster (CHO cells)
Settings: CHO cells; for pIC50: 6 hr. at 37°, read-out: IC50 (amount of compound required to suppress HMGR activity by 50% relative to controls); for effect on measured HMGR activity: tested under these same conditions

Row | Structure (SMILES) | pIC50 | effect on measured HMGR activity
1 | CC(C)CCC[C@@H](C)[C@H]1CC[C@H]2[C@@H]3CC=C4C[C@@H](O)CC[C@]4(C)[C@H]3CC[C@]12C [cholesterol, reference compound] | – | without effect
2 | CC(=O)O[C@H]1CC[C@]2(C)C3=C(CC[C@H]2C1(C)C)[C@]1(C=O)OC[C@H]([C@H](C)CCCC(C)C)[C@@]1(C)CC3 [Example 6, 3b-Acetoxy-15-oxa-32-oxolanost-8-ene] | 7.12 | –
3 | CC(C)CCC[C@@H](C)[C@H]1CC[C@@]2(C)C3=C(CC[C@]12C)[C@@]1(C)CC[C@H](O)C(C)(C)[C@@H]1CC3 [lanost-8-en-3b-ol, reference compound] | – | without effect
4 | CC(C)CCC[C@@H](C)[C@H]1CO[C@@]2([C@@H](O)CO)C3=C(CC[C@]12C)[C@@]1(C)CC[C@H](O)C[C@@H]1CC3 [Example 17] | 5.71 | –
5 | CC(C)CCC[C@@H](C)[C@H]1CO[C@@]2(C)C3=C(CC[C@]12C)[C@@]1(C)CC[C@H](O)C[C@@H]1CC3 [Example 13, 14a-Methyl-15-oxa-5a-cholest-8-en-3b-ol] | 5.60 | –
6 | CC(C)=CCC[C@@H](C)[C@H]1CC[C@@]2(C)C3=C(CC[C@]12C)[C@@]1(C)CC[C@H](O)C(C)(C)[C@@H]1CC3 [lanosta-8,24-diene-3b-ol, reference compound] | – | without effect
7 | CC(C)CCC[C@@H](C)[C@H]1CO[C@@]2([C@H](O)CO)C3=C(CC[C@]12C)[C@@]1(C)CC[C@H](O)C[C@@H]1CC3 [Example 16] | 5.60 | –
8 | CC(C)CCC[C@@H](C)[C@H]1CO[C@@]2(C=NO)C3=C(CC[C@]12C)[C@@]1(C)CC[C@H](O)C(C)(C)[C@@H]1CC3 [Example 10, 3b-Hydroxy-15-oxa-lanost-8-en-32-aldoxime] | 6.70 | –
9 | C=C[C@@]12OC[C@H]([C@H](C)CCCC(C)C)[C@@]1(C)CCC1=C2CC[C@H]2C(C)(C)[C@@H](O)CC[C@]12C [Example 3, 4,4-Dimethyl-15-oxa-14a-vinyl-5a-cholest-8-en-3b-ol] | 6.77 | –
10 | CC(C)CCC[C@@H](C)[C@H]1CO[C@@]2(C=O)C3=C(CC[C@]12C)[C@@]1(C)CC[C@H](O)C(C)(C)[C@@H]1CC3 [Example 7, 15-Oxa 32-oxodihydrolanosterol] | 7.40 | –
11 | CC(C)CCC[C@@H](C)[C@H]1CO[C@@]2(CO)C3=C(CC[C@]12C)[C@@]1(C)CC[C@H](O)C(C)(C)[C@@H]1CC3 [Example 8, 15-Oxa-lanost-8-ene-3b,32-diol] | 5.60 | –
12 | CC(C)CCC[C@@H](C)[C@H]1CO[C@H]2C3=C(CC[C@]12C)[C@@]1(C)CC[C@H](O)C(C)(C)[C@@H]1CC3 [Example 2, 4,4-Dimethyl-15-oxa-5a-cholest-8-en-3b-ol] | 6.52 | –

Continued, in another order:

Row | pIC50 | Structure (SMILES) | effect on measured HMGR activity
13 | 5.68 | CC(C)CCC[C@@H](C)[C@H]1CO[C@@]2(CO)C3=C(CC[C@]12C)[C@@]1(C)CC[C@H](O)C[C@@H]1CC3 [Example 19] | –
14 | 5.84 | CC(C)CCC[C@@H](C)[C@H]1CCO[C@H]2C3=C(CC[C@]12C)[C@@]1(C)CC[C@H](O)C(C)(C)[C@@H]1CC3 [Example 673, 4,4-dimethyl-14a-Oxa-D-homo-5a-cholest-8-en-3b-ol] | –
15 | 6.26 | CC(C)CCC[C@@H](C)[C@H]1CS[C@H]2C3=C(CC[C@]12C)[C@@]1(C)CC[C@H](O)C(C)(C)[C@@H]1CC3 [Example 858, 4,4-Dimethyl-15-thia-5a-cholest-8-en-3b-ol] | –
16 | 7.22 | CC(C)CCC[C@@H](C)[C@H]1CS[C@@]2(C)C3=C(CC[C@]12C)[C@@]1(C)CC[C@H](O)C(C)(C)[C@@H]1CC3 [Example 857] | –
17 | 5.30 | CC(C)CCC[C@@H](C)[C@H]1CCS[C@H]2C3=C(CC[C@]12C)[C@@]1(C)CC[C@H](O)C(C)(C)[C@@H]1CC3 [Example 1509, 4,4-Dimethyl-15-thia-D-homo-5a-cholest-8-en-3b-ol] | –
18 | 5.60 | CC(C)CCC[C@@H](C)[C@H]1CCO[C@@]2(C=O)C3=C(CC[C@]12C)[C@@]1(C)CC[C@H](O)C(C)(C)[C@@H]1CC3 [Example 677, 14a-Oxa-32-oxo-D-homo-dihydrolanosterol] | –
19 | 7.22 | C=C[C@@]12SC[C@H]([C@H](C)CCCC(C)C)[C@@]1(C)CCC1=C2CC[C@H]2C(C)(C)[C@@H](O)CC[C@]12C [Example 859, 4,4-Dimethyl-15-thia-14a-vinyl-5a-cholest-8-en-3b-ol] | –
20 | 7.10 | CC(C)CCC[C@@H](C)[C@H]1CO[C@@]2(C=O)C3=C(CC[C@]12C)[C@@]1(C)CCC(=O)C(C)(C)[C@@H]1CC3 [Example 386] | –
21 | 6.52 | CC(C)CCC[C@@H](C)[C@H]1C[S+]([O-])[C@@]2(C)C3=C(CC[C@]12C)[C@@]1(C)CC[C@H](O)C(C)(C)[C@@H]1CC3 (some centres unmarked) [Example 1303] | –
22 | 6.52 | CC(C)CCC[C@@H](C)[C@H]1CO[C@@]2(C=O)C3=C(CC[C@]12C)[C@@]1(C)CC[C@H](O)C[C@@H]1CC3 [Example 18] | –
23 | 5.90 | CC(C)CCC[C@@H](C)[C@H]1CCS[C@@]2(C)C3=C(CC[C@]12C)[C@@]1(C)CC[C@H](O)C(C)(C)[C@@H]1CC3 [Example 1508] | –
